Laboratory results reported in US20050038113A1, “Valproic acid and derivatives for the combinatorial therapeutic treatment of human cancers and for the treatment of tumor metastasis and minimal residual disease” (G2M Cancer Drugs AG, priority 2001, published 2005).

How the values were obtained:
[1] = test system: A431 squamous cell carcinoma cells; assay: MTT cell viability assay; assay type: cell-based, Human; conditions: for cell viability: single reagent, valproic acid 3 mM
Experimental: (§1) Human MDA-MB468, MDA-MB453 and SKBR3 breast carcinoma cells and A431 squamous cell carcinoma cells were maintained in Dulbecco's modified Eagle's medium (DMEM, BioWhittaker, Verviers, Belgium) supplemented with 10% heat inactivated fetal bovine serum (FBS), 2 mM L-glutamine, 100 units/ml penicillin, and 100 μg/ml streptomycin.
(§2) Tumor cells were seeded in 96 well plates at a density of 1×10^4 cells/well in normal growth medium. […] Control cells were grown in the absence of valproic acid or antibodies. 10 μl of 10 mg/ml 3-(4,5-dimethylthiazole-2-yl)-2,5 diphenyltetrazolium bromide (MTT) (Sigma, Deisenhofen, Germany) in PBS were added to each well and the cells were incubated for another 3 h. Cells were lysed by the addition of 90 μl of lysis buffer (20% SDS in 50% dimethyl formamide, pH 4.7). After solubilization of the formazan product, the absorption at 590 nm was determined in a microplate reader (Dynatech, Denkendorf, Germany) and the relative amount of viable cells in comparison to cells cultured without the addition of valproic acid or antibodies was calculated.
(§3) Human SKBR3 breast carcinoma cells, A431 squamous cell carcinoma cells and SKOV3 ovarian carcinoma cells were maintained in Dulbecco's modified Eagle's medium (DMEM, BioWhittaker, Verviers, Belgium) supplemented with 10% heat-inactivated fetal bovine serum (FBS), 2 mM L-glutamine, 100 units/ml penicillin, and 100 μg/ml streptomycin.
(§4) Tumor cells were seeded in 96 well plates at a density of 1×10^4 cells/well in normal growth medium. […] Renca-lacZ/ErbB2, Renca-lacZ/EGFR and Renca-lacZ/EGFRvIII cells were treated for 40 h with valproic acid at a final concentration of 1 mM, or 10 ng/ml of the recombinant anti-ErbB2 single chain antibody-toxin scFv(FRP5)-ETA, or 1 ng/ml of the recombinant anti-EGF receptor single chain antibody-toxin scFv(14E1)-ETA, or a combination of valproic acid with either scFv(FRP5)-ETA or scFv(14E1)-ETA at the same concentrations. Control cells were grown in the absence of valproic acid or antibody-toxins. Ten μl of 10 mg/ml 3-(4,5-dimethylthiazole-2-yl)-2,5 diphenyltetrazolium bromide (MTT) (Sigma, Deisenhofen, Germany) in PBS were added to each well and the cells were incubated for another 3 h. Cells were lysed by the addition of 90 μl of lysis buffer (20% SDS in 50% dimethyl formamide, pH 4.7). After solubilization of the formazan product, the absorption at 590 nm was determined in a microplate reader (Dynatech, Denkendorf, Germany) and the relative amount of viable cells in comparison to cells cultured without the addition of valproic acid or antibody-toxins was calculated.

[2] = test system: SKBR3 breast carcinoma cells; assay: MTT cell viability assay; assay type: cell-based, Human; conditions: for cell viability: single reagent, valproic acid 3 mM
Experimental: as §1, §2, §3, §4

[3] = test system: SKOV3 ovarian carcinoma cells; assay: MTT cell viability assay; assay type: cell-based, Human; conditions: 40 h
Experimental: as §3
Tumor cells were seeded in 96 well plates at a density of 1×10^4 cells/well in normal growth medium. SKBR3, A431 and SKOV3 cells were treated for 40 h with valproic acid at a final concentration of 3 mM, or 10 ng/ml of the recombinant anti-ErbB2 single chain antibody-toxin scFv(FRP5)-ETA (Wels et al., Cancer Res. 52: 6310-6317, 1992), or 10 ng/ml of the recombinant anti-EGF receptor single chain antibody-toxin scFv(14E1)-ETA (Schmidt et al., Brit. J. Cancer 75: 1575-1584, 1997), or a combination of valproic acid with either scFv(FRP5)-ETA or scFv(14E1)-ETA at the same concentrations. […] After solubilization of the formazan product, the absorption at 590 nm was determined in a microplate reader (Dynatech, Denkendorf, Germany) and the relative amount of viable cells in comparison to cells cultured without the addition of valproic acid or antibody-toxins was calculated.

[4] = dose finding experiment, VPA serum levels; assay type: in vivo, rat; conditions: chosen dosage protocol
Experimental: MT450 cells were grown in DMEM/W10% FCS medium and tested for absence of mycoplasms just prior to injection. Cells were washed twice in PBS and suspended to a density of 5×10^6 cells per ml of PBS. 5×10^5 cells in 0.1 ml of PBS were injected into each rat. […] Rats were left to grow primary tumors for 21 days. […] The solution was sterile filtered. The compound was applied by i.p. injection. […] Two doses per day were applied. Control animals received equal amounts of a sterile isotonic sodium chloride solution.
The experiment was terminated when tumor size in one of the rats of the control group had reached the legal limit of 50 mm. Necropsy at that time was performed on all rats of the experiment to assess lung metastasis. […] Metastasis was also found in 7 out of 8 VPA-treated rats. However, size and number of metastases were much smaller compared to NaCl-treated rats. A dose finding experiment had shown that the chosen dosage protocol lead to high initial serum levels (e.g. 3.6 mM at 1 hour after i.p. injection) which rapidly dropped (e.g. 0.25 mM at 4 hours after i.p. injection) below those levels which are maintained during therapy of epilepsy in human.

[5] = test system: PML-RAR expressing murine hematopoietic progenitors (lin-); assay: myeloid differentiation (Mac-1, FACS) of transduced hematopoietic progenitors; assay type: cell-based; conditions: VPA 1 mM with cytokines (IL3, IL6, SCF, G-CSF, GM-CSF), 8-10 days
Experimental: Murine hematopoietic progenitors (lin-) were transduced with a retroviral vector encoding PML-RAR, and GFP as a marker. […] Myeloid differentiation was scored by analyzing the presence of the differentiation marker Mac-1.
Lin- cells were grown for 48 hours in the presence of IL-3 (20 ng/ml), IL-6 (20 ng/ml), SCF (100 ng/ml), and then attached to non-tissue culture treated plates coated with Retronectin (Takara-Shuzo). Cells were then transduced by incubation with the supernatant from Phoenix ecotropic packaging cells (supplemented with fresh serum, and IL-3, IL-6, and SCF as above), transiently transfected with the control retroviral vector PINCO, or PINCO-PML-RAR. After 60 hours, GFP+cells were sorted by FACS, and seeded in methylcellulose plates supplemented as above, plus G-CSF (60 ng/ml) and GM-CSF (20 ng/ml). […] After 8-10 days, cells were analyzed for the presence of the myeloid differentiation marker Mac-1 by FACS.
Differentiation was assessed after 8-10 days by analysis of the myeloid differentiation marker Mac-1.

[6] = 3 mM valproic acid + 10 ng/ml scFv(14E1)-ETA, 40 h
[7] = 3 mM valproic acid + 10 ng/ml scFv(FRP5)-ETA, 40 h
[8] = 40 h, scFv(FRP5)-ETA 10 ng/ml, scFv(14E1)-ETA 10 ng/ml

For `CCCC(CCC)C(=O)O` [VPA, 2-propylpentanoic acid], which “cell viability, combination treatment” value ([1]; 3 mM VPA + 2 μg/ml c225, 70 h) is on record?
Its value is “synergistic reduction of cell viability”.

And the “cell viability, combination treatment” value [1, 6]?
The value was “pronounced additive therapeutic effect”.

And the “cell viability, combination treatment” value [1, 7]?
Its value is “pronounced additive therapeutic effect”.

And the cell viability [1, 8]?
The cell viability was “inhibit the viability”.

What about the cell viability ([1]; 70 h, c225 2 μg/ml) of the same compound?
Its cell viability is “inhibit the viability”.

And the “cell viability, combination treatment” value [2, 6]?
The value was “pronounced additive therapeutic effect”.

What about the “cell viability, combination treatment” value [2, 7] of the same compound?
The value was “pronounced additive therapeutic effect”.

What about the “cell viability, combination treatment” value ([2]; 3 mM valproic acid + 2 μg/ml Herceptin, 70 h) of the same compound?
The value was “pronounced additive therapeutic effect”.

What about the cell viability [2, 8] of the same compound?
The cell viability was “inhibit the viability”.

And the cell viability ([2]; 70 h, Herceptin 2 μg/ml)?
The cell viability was “inhibit the viability”.

What about the “cell viability, combination treatment” value ([3]; 3 mM valproic acid + 10 ng/ml scFv(FRP5)-ETA) of the same compound?
The value was “pronounced additive therapeutic effect”.

And the cell viability ([3]; single reagent, valproic acid 3 mM, scFv(FRP5)-ETA 10 ng/ml)?
Its cell viability is “inhibit the viability”.

And the serum level ([4]; 1 hour after i.p. injection)?
The serum level was 3600 µM.

What about the serum level ([4]; 4 hours after i.p. injection) of the same compound?
Its serum level is 250 µM.

And the “differentiation block imposed by PML-RAR (Mac-1)” value [5]?
The value was “almost completely reverted the differentiation block”.
